Results on one compound are retold here after PMC9571264 (Molecules, 2022).

One experiment deals with Liver Cancer HepG2. Description: MTT cytotoxicity assay, HepG2. The experiment is classed as cell-based, human. As to conditions: Homo sapiens, HepG2, 48 h, read-out: IC50 (µM) ± SEM, Liver Cancer HepG2. The protocol:
(§1) Cytotoxic activities of the synthesized derivatives were screened against leukemia (HL60), liver (HepG2), breast (MCF-7), and lung (A549) cancer cell lines and non-cancerous THLE2 and WISH cells at different concentrations [0.01–100 µM] for 48 h using the MTT assay (Table 1).
(§2) Human promyelocytic leukemia ”HL-60”, human hepatocellular carcinoma “HepG2”, human breast cancer “MCF-7”, human lung cancer “A549” cell lines, and two normal cell lines, THLE-2 as normal adult liver epithelial cells and WISH as normal epithelial cells, were obtained from American Type Culture Collection “Rockville, MD, USA”.
(§3) According to the manufacturer’s protocol, the cells were seeded in 96-well plates at a concentration of 5 × 10^4 cells per well (200 µL). Different concentrations of the tested compounds were used to test the cytotoxicity. […] A non-linear regression of curve fit was used to calculate the IC50.
Background: Tetrazolium dyes change colour on reduction, which living cells bring about.

Experiment [1] deals with caspases 3/7 in HepG2 cells. Description: Caspase 3/7 green flow cytometry assay, HepG2. The experiment is classed as cell-based, human. The following applies: HepG2, 48 h; untreated cells 1.32%. The text has this: Apoptosis is a form of cell death programmed by the family of cysteine protease. In response to the various cell death stimuli, a large irreversible proteolytic cascade is triggered and subsequently generated. The effector caspase activity has been evaluated to determine the apoptotic pathway initiated by the tested compounds using the “Cell Event™ Caspase 3/7 Green Detection kit”.
(§4) (See supplementary information for the detailed methodology of flow cytometric analyses, including “FITC/Annexin-V-FITC/PI differential apoptosis/necrosis”, “DNA content-flow cytometry aided cell cycle”, and “Caspase 3/7 green flow cytometry”).
(§5) Supplementary materials for detailed methodology
(§6) 2.2.2.1. Flow cytometric analysis
2.2.2.1.1. FITC/Annexin-V-FITC/PI Differential Apoptosis/Necrosis Assessment Apoptosis and necrosis cell populations are determined using Annexin V-FITC apoptosis detection kit (Abcam Inc., Cambridge Science Park, Cambridge, UK) coupled with 2 fluorescent channels flowcytometry. […] After staining, cells are injected via ACEA Novocyte™ flowcytometer (ACEA Biosciences Inc., San Diego, CA, USA) and analyzed for FITC and PI fluorescent signals using FL1 and FL2 signal detector, respectively (λex/em 488/530 nm for FITC and λex/em 535/617 nm for PI). […]
concentration was measured. […]
On the technique in general: In flow cytometry, cells or beads pass a laser one at a time.

A further experiment has as its system Normal WISH Cells. Description: MTT cytotoxicity assay, normal WISH. The class given is cell-based. The following applies: 48 h, read-out: IC50 (µM) ± SEM, Normal WISH Cells. The protocol:
as §1, §2, §3

The subject of another experiment is HepG2 cancer cells. The experiment is described as follows: Annexin-V-FITC/PI apoptosis/necrosis flow cytometry, HepG2. The class given is cell-based, human. The following applies: HepG2, IC50 = 13.14 μM, 48 h. Here is the method:
as §4, §5, §6
2.2.2.1.1. FITC/Annexin-V-FITC/PI Differential Apoptosis/Necrosis Assessment Apoptosis and necrosis cell populations are determined using Annexin V-FITC apoptosis detection kit (Abcam Inc., Cambridge Science Park, Cambridge, UK) coupled with 2 fluorescent channels flowcytometry. After treatment with test compounds for 48 h, cells (10^5 cells) are collected by trypsinization and washed twice with ice-cold PBS (pH 7.4). Then, cells are incubated in dark with 0.5 ml of Annexin V-FITC/PI solution for 30 min in dark at room temperature according to manufacturer protocol. After staining, cells are injected via ACEA Novocyte™ flowcytometer (ACEA Biosciences Inc., San Diego, CA, USA) and analyzed for FITC and PI fluorescent signals using FL1 and FL2 signal detector, respectively (λex/em 488/530 […]
nm for FITC and λex/em 535/617 nm for PI). […]
NovoExpress™ software (ACEA Biosciences Inc., San Diego, CA, USA).
2.2.2.1.3. Caspase- 3/7 green flow cytometry assay
The ability of compounds 4 and 9 to induce the enzymatic activities of caspase 3/7 in HL60 and HepG2 respectively were assayed using caspase 3/7 green flow cytometry assay method. Briefly, control and the tested compounds treated cells (2.5x10^5/mL) were rinsed with ice cold PBS, cell lysates were prepared and subsequently protein

A further experiment concerns Normal Liver THLE2. The experiment is described as follows: MTT cytotoxicity assay, normal THLE2. The experiment is classed as cell-based. The following applies: Homo sapiens, THLE-2, 48 h, read-out: IC50 (µM) ± SEM, Normal Liver THLE2. The protocol: as §1, §2, §3

The term IC50 denotes the concentration that inhibits the measured activity by half. Regarding `Cc1c(Br)c(=O)oc2c(Br)c(OC(=O)/C=C/c3ccccc3)c(Br)cc12` [Compound 8b, (2E)-3,6,8-Tribromo-4-methyl-2-oxo-2H-chromen-7-yl Cinnamate], the IC50 in the experiment on Liver Cancer HepG2 was determined as 13.1 ± 0.22 µM; in the experiment with Normal WISH Cells, 96.8 ± 3.21 µM; in the experiment on Normal Liver THLE2 it was 86.5 ± 2.16 µM. In addition, the “Apoptotic cells due to active caspases 3/7” value in experiment [1] was 6.09%. For the same compound, the “Increase of apoptotic cell death versus control” value with HepG2 cancer cells turned out to be 6.88 fold. In the experiment on HepG2 cancer cells, the “Increase of necrosis-mediated cell death versus control” value was 1.66 fold. The “Necrosis, cell percentage” value in the experiment with HepG2 cancer cells (control 0.96%) is 1.59%.
